Patent publication US9271978B2 (Zenith Epigenetics Corp., priority 2012, dated 2016)

Legend:
Design in all cases: key: Active: Compounds with an IC50 value less than 30 μM were deemed to be active.; Not Active: Compounds with an IC50 value less than 30 μM were deemed to be active
[1] = target: T1, Brd4 bromodomain 1 (BRD4(1)) (Homo sapiens, UniProt O60885); test: Inhibition of tetra-acetylated histone H4 binding to Brd4 bromodomain 1 (TR-FRET); conditions: tetra-acetylated histone H4 peptide, active = IC50 <30 μM
T1 construct: Illustrative results with the first bromodomain of Brd4; made in house; host or cells: E. coli BL21 (DE3)
How it was run: (§1)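 N-terminally His-tagged bromodomains (200 nM), expressed in E. coli, were incubated with biotinylated tetra-acetylated histone H4 peptide (25-50 nM), Eu-cryptate streptavidin and XL665 anti-His antibody in HEPES pH 7.4 buffer with KF, 0.2% DMSO, 2 h at room temperature. Inhibition read as decreased 665/620 nm TR-FRET; IC50 from dose-response curves.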

hIL-6 mRNA = test: Inhibition of hIL-6 mRNA transcription in U937 cells; type: cell-based, human; conditions: LPS stimulation, active = IC50 <30 μM
How it was run: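 U937 cells differentiated 3 days with 60 ng/mL PMA, pretreated 1 h with compound, then stimulated with 1 ug/mL E. coli LPS for 3 h at 37° C. hIL-6 mRNA quantified by one-step qRT-PCR, Ct normalized to internal control, expressed as fold induction relative to control.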

[2] = system: human AML MV-4-11 (CRL-9591) cells; test: Inhibition of cell proliferation in MV4-11 cells; type: cell-based; conditions: human AML MV-4-11 cells, 72 h; active = IC50 <30 μM
Description: MV4-11 cells: 96-well plates were seeded with 5×10^4 cells per well of exponentially growing human AML MV-4-11 (CRL-9591) cells and immediately treated with two-fold dilutions of test compounds, ranging from 30 μM to 0.2 μM. Triplicate wells were used for each concentration, as well as a media only and three DMSO control wells. The cells and compounds were incubated at 37° C., 5% CO2 for 72 h before adding 20 μL of the CellTiter Aqueous One Solution (Promega) to each well and incubating at 37° C., 5% CO2 for an additional 3-4 h. The absorbance was taken at 490 nm in a spectrophotometer and the percentage of proliferation relative to DMSO-treated cells was calculated after correction from the blank well. IC50 were calculated using the GraphPad Prism software.

[3] = target: T2, second bromodomain of Brd2 (BRD2(2)) (Homo sapiens, UniProt P25440); test: Inhibition of tetra-acetylated histone H4 binding to Brd2 bromodomain 2 (TR-FRET); conditions: tetra-acetylated histone H4 peptide, active = IC50 <30 μM
T2 construct: made in house; host or cells: E. coli BL21 (DE3)
T2 sequence (P25440 344-453 limits assumed): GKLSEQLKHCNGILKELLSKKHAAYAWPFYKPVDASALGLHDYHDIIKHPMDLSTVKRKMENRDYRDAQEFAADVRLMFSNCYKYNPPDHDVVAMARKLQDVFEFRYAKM
How it was run: as §1

c-myc = test: Inhibition of c-myc expression in MV4-11 cells (mRNA, real-time PCR); type: cell-based; conditions: Human AML MV4-11 cells, 3 h incubation
Description: MV4-11 cells (2.5×10^4 cells) were plated in 96 well U-bottom plates with test compound or DMSO (0.1%), and incubated for 3 h at 37° C. Cells were then harvested by centrifugation, lysed, and mRNA was isolated using the mRNA catcher plus kit (Invitrogen). Reverse transcription of the mRNA and duplex amplification of the c-myc and cyclophilin cDNAs was performed using the RNA Ultrasense kit (Invitrogen) and a ViiA7 real-time PCR machine (Applied Biosystems). IC50 values were determined from a dose response curve.

SMILES	FRET activity (IC50 <30 μM) BRD4(1) [1]	IL-6 activity (IC50 <30 μM) (hIL-6 mRNA)	Cell Proliferation activity (IC50 <30 μM) [2]	FRET activity (IC50 <30 μM) BRD2(2) [3]	c-myc activity (IC50 <30 μM) (c-myc)
Cc1noc(C)c1-c1ccc(=O)n(Cc2ccc(Cl)cc2)n1 [Example 25, 2-(4-Chlorobenzyl)-6-(3,5-dimethylisoxazol-4-yl)pyridazin-3(2H)-one]	Active	Active	Active	Active	Active
Cc1noc(C)c1-c1ccc(=O)n(Cc2cc(F)c(F)c(F)c2)c1 [Example 142, 5-(3,5-Dimethylisoxazol-4-yl)-1-(3,4,5-trifluorobenzyl)pyridin-2(1H)-one]	Active	Active	Active	Active	Active
Cc1noc(C)c1-c1cc(F)c(=O)n(Cc2ccccc2)c1 [Example 63, 1-Benzyl-5-(3,5-dimethylisoxazol-4-yl)-3-fluoropyridin-2(1H)-one]	Active	Active	Active	Active	Active
COc1ccc(-c2nn(Cc3ccccc3)c(=O)c3ccccc23)c(O)c1OC [Example 164, 2-Benzyl-4-(2-hydroxy-3,4-dimethoxyphenyl)phthalazin-1(2H)-one]	Active	Not Active	Active	Active	Not Active
COc1cc(-c2ccc(=O)n(Cc3cccc(C#N)c3)n2)cc(OC)c1OC [Example 15, 3-((6-Oxo-3-(3,4,5-trimethoxyphenyl)pyridazin-1(6H)-yl)methyl)benzonitrile]	Active	Active	Not Active	Active	Not Active
Cc1onc(N)c1-c1ccc(=O)n(Cc2ccccc2)c1 [Example 151, 5-(3-Amino-5-methylisoxazol-4-yl)-1-benzylpyridin-2(1H)-one]	Active	Active	Active	Active	Not Active
Cc1noc(C)c1-c1ccc(=O)n(Cc2ccccc2C#N)n1 [Example 24, 2-((3-(3,5-Dimethylisoxazol-4-yl)-6-oxopyridazin-1(6H)-yl)methyl)benzonitrile]	Active	Not Active	Active	Active	Not Active
COc1cc(-c2ccc(=O)n(Cc3ccc(C(C)(C)C)cc3)n2)cc(OC)c1OC [Example 120, 2-(4-(tert-Butyl)benzyl)-6-(3,4,5-trimethoxyphenyl)pyridazin-3(2H)-one]	Active	Not Active	Active	Active	Not Active
Cc1noc(C)c1-c1ccc(=O)n(Cc2cccc(C(F)(F)F)c2)c1 [Example 4, 5-(3,5-Dimethylisoxazol-4-yl)-1-(3-(trifluoromethyl)benzyl)pyridin-2(1H)-one]	Active	Active	Active	Active	Active
Cc1noc(C)c1-c1cc(N)c(=O)n(Cc2ccc(N3CCOCC3)cc2)c1 [Example 238, 3-Amino-5-(3,5-dimethylisoxazol-4-yl)-1-(4-morpholinobenzyl)pyridin-2(1H)-one]	Active	Active	Active	–	Active
